# Source: patent US4310660A, “Lincomycin compounds” (The Upjohn Company, priority 1980, dated 1982)
# Read-outs that look alike come from different tables or passages of the source.
# Tests used:
# Staphylococcus aureus = test: MIC vs. aerobic bacteria, microplate broth-dilution (BHI); type: cell-based; details: Staphylococcus aureus
# S. hemolyticus [1] = test: MIC, test procedure as given supra; type: cell-based; details: UC152, 20 h, S. hemolyticus UC 152; read-out: MIC
# Method: (§1) The Minimal Inhibitory Concentration (MIC's) of both compounds Vs. aerobic bacteria is determined using a standard microplate broth-dilution method. Brain Heart Infusion (BHI-Difco) broth medium is used, and the plates are incubated at 37° C. for 20 hrs.
# (§2) The Minimal Inhibitory Concentration (MIC's) of a representative number of the compounds prepared in Examples 2-8 follows. The test procedure is as given supra.
# S. lutea [2] = test: MIC, test procedure as given supra; type: cell-based; details: Micrococcus luteus, UC130, 20 h; S. lutea UC 130
# Method: as §1, §2
# Proteus vulgaris = test: MIC vs. aerobic bacteria, microplate broth-dilution (BHI); type: cell-based; details: Proteus vulgaris, UC93, 20 h, P. vulgaris UC 93; read-out: MIC
# Method: as §1
# Escherichia coli = test: as above; type: cell-based
# Method: as §1
# [3] = test system: Salmonella schottmuelleri; test: as above; type: cell-based; details: Salmonella
# Method: as §1
# Klebsiella pneumoniae = test: as above; type: cell-based; details: Klebsiella pneumoniae
# Method: as §1
# Pseudomonas aeruginosa = test: as above; type: cell-based
# Method: as §1
# Diplococcus pneumoniae = test: as above; type: cell-based; details: Streptococcus pneumoniae
# Method: as §1
# Streptococcus faecalis = test: as above; type: cell-based; details: Enterococcus faecalis
# Method: as §1
# S. lutea [4] = test: Qual. Assay vs. S. lutea; type: cell-based; details: qualitative
# S. hemolyticus [5] = test: Mouse Protection Test; type: in vivo; details: for ED50: 168 h, read-out: Median Protective Dose (CD50)
# From the text: (§3) Immediately before use, the suspensions were thawed quickly and properly diluted. Infection was via the intrapertioneal route.
# (§4) Treatment of the infected groups was begun immediately and continued once per day for 4 days (first 24 hr period=1). Groups of untreated mice served as virulence controls for the culture.
# (§5) Seven days after the treatment regimen was begun the surviving animals were sacrificed and the median protective dose of the antibiotic calculated on the basis of mortality rates in the treatment groups. The median protective dose and its 95% confidence interval were calculated according to the method of Spearmen & Karber as programmed on a 360 digital computer.
# S. aureus = test: Mouse Protection Test; type: in vivo; details: for ED50: Staphylococcus aureus, read-out: Median Protective Dose (CD50)
# From the text: as §3, §4, §5
# Streptococcus pyogenes = test: MIC vs. aerobic bacteria, microplate broth-dilution (BHI); type: cell-based; details: UC152, UC 152, read-out: Minimal Inhibitory Concentration (MIC)
# Method: as §1
# D. pneumoniae III = test: Mouse Protection Test; type: in vivo; details: for ED50: Streptococcus pneumoniae, 168 h, read-out: Median Protective Dose (CD50); for ED50 / Median Protective Dose (CD50): strain MPI III, two experiments listed; for Median Protective Dose (CD50): 10080 min, listed as U-60970E . Hcl
# From the text: as §3, §4, §5
# (§6) U-60,970E was also tested in vivo in standard laboratory mice which were experimentally infected with bacteria. The test was conducted in comparison with U-57,930E.
# D. pneumoniae I = test: Mouse Protection Test; type: in vivo; details: for ED50: Streptococcus pneumoniae, 168 h, strain Felton I, read-out: Median Protective Dose (CD50)
# From the text: as §3, §4, §5, §6
# bacteria = test: antibacterial activity (general statement)
# [6] = UC76, S. aureus UC 76, read-out: Minimal Inhibitory Concentration (MIC)
# [7] = UC570, S. aureus UC 570, read-out: Minimal Inhibitory Concentration (MIC)
# [8] = UC746, S. aureus UC 746, read-out: Minimal Inhibitory Concentration (MIC)
# [9] = UC45, UC 45, read-out: Minimal Inhibitory Concentration (MIC)
# [10] = UC126, UC 126, read-out: Minimal Inhibitory Concentration (MIC)
# [11] = UC58, UC 58, read-out: Minimal Inhibitory Concentration (MIC)
# [12] = UC95, UC 95, read-out: Minimal Inhibitory Concentration (MIC)
# [13] = UC41, Diplococcus pneumoniae I, UC 41, read-out: Minimal Inhibitory Concentration (MIC)
# [14] = UC694, UC 694, read-out: Minimal Inhibitory Concentration (MIC)
smiles,measurement,setting,value
"CCc1ccnc(C(=O)N[C@@H]([C@H]2O[C@H](SC)[C@H](O)[C@@H](O)[C@H]2O)[C@H](C)O)c1 [U-45,659]",MIC,"Staphylococcus aureus; UC76, 20 h, S. aureus UC 76, read-out: MIC",> 1000 mg/L
same,MIC,"Staphylococcus aureus; UC570, 20 h, S. aureus UC 570, read-out: MIC",> 1000 mg/L
same,MIC,"Staphylococcus aureus; UC746, 20 h, S. aureus UC 746, read-out: MIC",1000 mg/L
same,MIC,S. hemolyticus [1],500 mg/L
same,MIC,S. lutea [2],1000 mg/L
same,MIC,Proteus vulgaris,> 1000 mg/L
same,MIC,"Escherichia coli; UC45, 20 h, E. coli UC 45, read-out: MIC",> 1000 mg/L
same,MIC,"[3]; UC126, 20 h, S. schottmuelleri UC 126",> 1000 mg/L
same,MIC,"Klebsiella pneumoniae; UC58, 20 h, K. pneumoniae UC 58, read-out: MIC",1000 mg/L
same,MIC,"Pseudomonas aeruginosa; UC95, 20 h, Ps. aeruginosa UC 95, read-out: MIC",1000 mg/L
same,MIC,"Diplococcus pneumoniae; UC41, 20 h, D. pneumoniae UC 41, read-out: MIC",500 mg/L
same,MIC,"Streptococcus faecalis; UC694, 20 h, St. faecalis UC 694, read-out: MIC",> 1000 mg/L
"CS[C@H]1O[C@H]([C@H](NC(=O)c2cccnc2)[C@H](C)Cl)[C@H](O)[C@H](O)[C@H]1O [U-46,138]",Qual. Assay vs. S. lutea,S. lutea [4],Inactive
"CCCC[C@@H]1CCN[C@H](C(=O)N[C@@H]([C@H]2O[C@H](SC)[C@H](O)[C@@H](O)[C@H]2O)[C@H](C)Cl)C1 [U-60,970E, 4-Cis-n-Butyl-L-Pipecolic Acid Amide of 7-Cl-MTL]",MIC,Staphylococcus aureus; [6],0.125 mg/L
same,MIC,Staphylococcus aureus; [7],0.25 mg/L
same,MIC,Staphylococcus aureus; [8],0.062 mg/L
same,ED50,"S. hemolyticus [5]; strain C203, oral",2.18 mg/kg
same,"in vivo activity compared with U-57,930E",S. hemolyticus [5]; infected mice,essentially the same activity
same,ED50,"S. hemolyticus [5]; sc, strain C203, subcutaneous",0.35 mg/kg
same,ED50,"S. aureus; UC76, 168 h, strain UC 76, oral",8.12 mg/kg
same,ED50,"S. aureus; UC76, sc, 168 h, strain UC 76, subcutaneous",1.32 mg/kg
same,"in vivo activity compared with U-57,930E",S. aureus; infected mice,essentially the same activity
same,MIC,Streptococcus pyogenes,0.008 mg/L
same,MIC,Escherichia coli; [9],31.2 mg/L
same,MIC,[3]; [10],31.2 mg/L
same,MIC,Klebsiella pneumoniae; [11],7.8 mg/L
same,MIC,Pseudomonas aeruginosa; [12],> 125 mg/L
same,MIC,Diplococcus pneumoniae; [13],0.016 mg/L
same,MIC,Streptococcus faecalis; [14],0.25 mg/L
same,ED50,"D. pneumoniae III; po, oral",3.13 mg/kg
same,ED50,"D. pneumoniae III; sc, subcutaneous",0.44 mg/kg
same,"in vivo activity compared with U-57,930E",D. pneumoniae III; infected mice,significantly more active
same,Median Protective Dose (CD50),D. pneumoniae III; oral,4.12 (2.93-5.81) mg/kg
same,Median Protective Dose (CD50),D. pneumoniae III; subcutaneous,0.29 (0.21-0.41) mg/kg
same,ED50,D. pneumoniae I; oral,4.42 mg/kg
same,ED50,"D. pneumoniae I; sc, subcutaneous",0.67 mg/kg
same,"in vivo activity compared with U-57,930E",D. pneumoniae I; infected mice,significantly more active
CC[C@H]1CCN[C@@H](C(=O)N[C@@H]([C@H]2O[C@H](SC)[C@H](O)[C@@H](O)[C@H]2O)[C@H](C)Cl)C1 [V A],MIC,Staphylococcus aureus; [6],250 mg/L
same,MIC,Staphylococcus aureus; [7],1000 mg/L
same,MIC,Staphylococcus aureus; [8],125 mg/L
same,antibacterial potency compared with related form,bacteria,not as potent an antibacterial agent as the L-cis compound
same,MIC,Streptococcus pyogenes,62.5 mg/L
same,MIC,Escherichia coli; [9],> 1000 mg/L
same,MIC,[3]; [10],> 1000 mg/L
same,MIC,Klebsiella pneumoniae; [11],> 1000 mg/L
same,MIC,Pseudomonas aeruginosa; [12],> 1000 mg/L
same,MIC,Diplococcus pneumoniae; [13],62.5 mg/L
same,MIC,Streptococcus faecalis; [14],> 1000 mg/L
